Experimental data as given in US4853467A, “Nitrogen containing derivatives of epipodophyllotoxin glucosides” (Bristol-Myers Company, priority 1987, dated 1989).
In brackets after ≈: the same amount, converted by molar mass. Counter-ions that a name gives are not always drawn.

How the values were obtained:
[1] = system: P388 murine leukemia; assay: P388 Leukemia, antitumor activity against murine P388 leukemia; format: in vivo, murine (female CDF1 mice); settings: i.p. on days 5 and 8; 10^6 P388 cells i.p.; maximum effect over doses; >=125 considered significant; etoposide values in parentheses are positive control in same experiment
Method: Female CDF1 mice were implanted intraperitoneally with a tumor inoculum of 10^6 ascites cells of P388 murine leukemia and treated with various doses of a test compound; four mice were used for each dose level and ten were used as saline-treated control. The compounds were administered by intraperitoneal injection on days 5 and 8 (day 1 being the day of tumor implantation). Antitumor activity was expressed as % T/C which is the ratio of the median survival time (MST) of drug-treated group to the MST of saline-treated control group. A compound showing a % T/C value of 125 or greater is generally considered to have significant antitumor activity in the P388 test. The experiment lasted 31 days at the end of which time the number of survivors was noted. Table I presents the results of the above-described evaluation; only the maximum % T/C and the dose showing the maximum effect are reported.

[2] = system: HCT/VP35; assay: In vitro cytotoxicity assay, HCT/VP35 etoposide-resistant human colon tumor; format: cell-based; settings: two values per compound, four-fold serial dilution; for In vitro cytotoxicity IC50, HCT/VP35: HCT/VP35, resistant to etoposide; for IC50: Homo sapiens, HCT/VP35, HCT/VP35, resistant to etoposide
Method: (§1) The in vitro cytotoxicity assay involved growing various mammalian tumor cells, including human tumor cells, on microtitre plates employing established tissue culture methods. The concentration of each compound required to inhibit cell growth by 50% (IC50) was then determined by a four-fold serial dilution technique. The validity of the method has been supported by a report published in the "Proceedings of the American Association for Cancer Research", 1984, 25:1891 (Abst. No. 328). Tumor cells of the following types were employed for each compound tested: B16-F10 murine melanoma; Moser human colon; SW900 human lung and three human colon tumor cell lines namely HCT-116, HCT-VM, and HCT-VP, the latter two being resistant to teniposide (VM) and etoposide (VP), respectively. IC50 values less than 500 μg/ml are a positive indicator of antitumor activity. Table II presents IC50 values of various compounds of the present invention against the aforementioned cell lines.

[3] = system: B16-F10 murine melanoma; assay: In vitro cytotoxicity assay, B16-F10 murine melanoma; format: cell-based; settings: two values per compound, four-fold serial dilution; for In vitro cytotoxicity IC50, B-16-F10: B16-F10 murine melanoma; for IC50: Mus musculus, B16-F10, B16-F10 murine melanoma, read-out: In vitro cytotoxicity IC50, B-16-F10
Method: as §1

[4] = system: HCT/VM34; assay: In vitro cytotoxicity assay, HCT/VM34 teniposide-resistant human colon tumor; format: cell-based; settings: HCT/VM34, resistant to teniposide, two values per compound, four-fold serial dilution; for IC50: Homo sapiens
Method: as §1

[5] = system: HCT-116; assay: In vitro cytotoxicity assay, HCT-116 human colon tumor; format: cell-based; settings: two values per compound, four-fold serial dilution; for In vitro cytotoxicity IC50, HCT-116: HCT-116 human colon; for IC50: Homo sapiens, HCT-116, HCT-116 human colon
Method: as §1

`COc1cc([C@@H]2c3cc4c(cc3[C@@H](O[C@@H]3O[C@@H]5CO[C@@H](C)O[C@H]5[C@H](O)[C@H]3O)[C@H]3COC(=O)[C@H]23)OCO4)cc([N+]#N)c1[O-]` [Example 25, 3'-Desmethoxy-3'-diazonium etoposide hydroxide inner salt] was tested, and the “Max % T/C (ratio of median survival time of drug-treated group to saline-treated control group)” value [1] was 240%, the “In vitro cytotoxicity IC50, HCT/VP35” value [2] was 102 µg/mL and the IC50 [2] was 78 µg/mL. For the same compound, the “In vitro cytotoxicity IC50, B-16-F10” value [3] was 25 µg/mL, the IC50 [3] was 29 µg/mL and the “In vitro cytotoxicity IC50, HCT/VM34” value [4] was 43 µg/mL. The IC50 [4] was 38 µg/mL, the “In vitro cytotoxicity IC50, HCT-116” value [5] was 38 µg/mL and the IC50 [5] was 24 µg/mL.
`COc1cc([C@@H]2c3cc4c(cc3[C@@H](O[C@@H]3O[C@@H]5CO[C@@H](C)O[C@H]5[C@H](O)[C@H]3O)[C@H]3COC(=O)[C@H]23)OCO4)cc(NC(C)=O)c1O` [Example 7, 3'-Acetylamino-3'-desmethoxy etoposide] was tested, and the “Max % T/C (ratio of median survival time of drug-treated group to saline-treated control group)” value [1] was 135%, the “In vitro cytotoxicity IC50, HCT/VP35” value [2] was 83 µg/mL and the IC50 [2] was 90 µg/mL (≈ 146 µM). The “In vitro cytotoxicity IC50, B-16-F10” value [3] was 63 µg/mL, the IC50 [3] was 54 µg/mL (≈ 87.7 µM) and the “In vitro cytotoxicity IC50, HCT/VM34” value [4] was 65 µg/mL. For the same compound, the IC50 [4] was 63 µg/mL (≈ 102 µM), the “In vitro cytotoxicity IC50, HCT-116” value [5] was 63 µg/mL and the IC50 [5] was 60 µg/mL (≈ 97.5 µM).
In the case of `COc1ccc(C=Nc2cc([C@@H]3c4cc5c(cc4[C@@H](O[C@@H]4O[C@@H]6CO[C@@H](C)O[C@H]6[C@H](O)[C@H]4O)[C@H]4COC(=O)[C@H]34)OCO5)cc(OC)c2O)cc1` [Example 20, 3'-Desmethoxy-3'-[[(4-methoxy)phenyl]methylene]amino etoposide], the “Max % T/C (ratio of median survival time of drug-treated group to saline-treated control group)” value [1] was 175%, the “In vitro cytotoxicity IC50, HCT/VP35” value [2] was 61 µg/mL and the IC50 [2] was 35 µg/mL (≈ 50.6 µM). For the same compound, the “In vitro cytotoxicity IC50, B-16-F10” value [3] was 19.8 µg/mL, the IC50 [3] was 13.3 µg/mL (≈ 19.2 µM) and the “In vitro cytotoxicity IC50, HCT-116” value [5] was 5.6 µg/mL. The IC50 [5] was 9.6 µg/mL (≈ 13.9 µM).
With `CON=C1C=C([C@@H]2c3cc4c(cc3[C@@H](O[C@@H]3O[C@@H]5CO[C@@H](C)O[C@H]5[C@H](O)[C@H]3O)[C@H]3COC(=O)[C@@H]32)OCO4)C=C(OC)C1=O` [Example 1, Etoposide-ortho-quinone-3'-O-methyloxime] the “Max % T/C (ratio of median survival time of drug-treated group to saline-treated control group)” value [1] was 200%.
`COc1cc([C@@H]2c3cc4c(cc3[C@@H](O[C@@H]3O[C@@H]5CO[C@@H](C)O[C@H]5[C@H](O)[C@H]3O)[C@H]3COC(=O)[C@H]23)OCO4)cc(N)c1O` [Example 3, 3'-Amino-3'-desmethoxy etoposide] was tested, and the “Max % T/C (ratio of median survival time of drug-treated group to saline-treated control group)” value [1] was 228%.
With `COc1cc([C@@H]2c3cc4c(cc3[C@@H](O[C@@H]3O[C@@H]5CO[C@@H](C)O[C@H]5[C@H](O)[C@H]3O)[C@H]3COC(=O)[C@H]23)OCO4)cc(NC(=O)NCCCl)c1O` [Example 10, 3'-[(2-Chloroethylamino)carbonyl]amino-3'-desmethoxy etoposide] the “Max % T/C (ratio of median survival time of drug-treated group to saline-treated control group)” value [1] was 110%, the “In vitro cytotoxicity IC50, HCT/VP35” value [2] was 106 µg/mL and the IC50 [2] was 92 µg/mL (≈ 135 µM). For the same compound, the “In vitro cytotoxicity IC50, B-16-F10” value [3] was 87 µg/mL, the IC50 [3] was 57 µg/mL (≈ 83.9 µM) and the “In vitro cytotoxicity IC50, HCT/VM34” value [4] was 100 µg/mL. The IC50 [4] was 81 µg/mL (≈ 119 µM), the “In vitro cytotoxicity IC50, HCT-116” value [5] was 78 µg/mL and the IC50 [5] was 71 µg/mL (≈ 105 µM).
`COC1=CC([C@@H]2c3cc4c(cc3[C@@H](O[C@@H]3O[C@@H]5CO[C@@H](C)O[C@H]5[C@H](O)[C@H]3O)[C@H]3COC(=O)[C@@H]32)OCO4)=CC(=NOCc2ccccc2)C1=O` [Example 2, Etoposide-ortho-quinone-3'-O-benzyloxime] was tested, and the “Max % T/C (ratio of median survival time of drug-treated group to saline-treated control group)” value [1] was 242%.
